In assay [1] the target is double-stranded nucleic acids. Nature of the assay: Binding constant (Kb) of fluorescent dye with double-stranded nucleic acids. Particulars: Kp from Molecular Probes catalog divided by 55. The text has this:
The fluorescent dyes useful herein are generally defined as unsymmetrical cyanine dyes having a binding constant (Kb) within the range of from about 1×104 to about 5×105 (molar^-1). As used to define Kb, "about" refers to a variance of 10%. The dyes are also water-soluble or water-dispersible so they can bind to the nucleic acids in the aqueous reaction mixture. Depending upon the anions used, the dyes may be dissolved in a water-miscible solvent.
Particularly useful fluorescent dyes are commercially available from Molecular Probes, Inc. having the trade names and Kp values listed in Table I below. However, this invention is not to be construed as limited to the particular Molecular Probes, Inc. dyes listed therein since these are but preferred dyes. The cations of these preferred dyes are also identified below by chemical structure. The compounds can include any suitable divalent anion, or two monovalent anions. Iodide is preferred. [drawing 3]
*The Kb values in the table were calculated by dividing the partitio
coefficient (Kp) reported in the Molecular Probes, Inc. catalog, page 224
by 55, the molarity of water.

For assay [2], the system named is HIV-I DNA. Nature of the assay: Example 3: fluorescence after amplification with dye; usefulness / PCR inhibition. It is filed as biochemical. The settings on record: for Fluorescent Signal: amplified samples mixed with YOYO-1 (0.1 μmolar); for usefulness of dye / inhibition of PCR: dye in amplification. On the procedure:
The primers used in Example 3 had the following sequences which are complementary to the gag region of HIV-I DNA: Amplification experiments like those of Example 2 were also carried out to evaluate the usefulness of several other conventional fluorescent dye stains. In these assays, primers identified above as SEQ ID NO:3 and SEQ ID NO:4 were used, as well as the probe identified as SEQ ID NO:6. […] Fluorescence was determined as described in Example 2 except that all amplified samples were mixed with a solution of YOYO-1 (0.1 μmolar) to provide a common minimum threshold of signal.

Assay [3] has as its system HIV-I DNA. Nature of the assay: Example 2: leuco dye color scores of amplified target in pouches. It is filed as biochemical. Particulars: dye added prior to amplification. On the procedure: (§1) The method of this invention was compared to an amplification and detection method outside the scope of this invention, which was carried out using YOYO-1 (1 μmolar final concentration), a tetravalent fluorescent dye, in the buffered solution described above. This dye has the following structure: [drawing 4]
Amplification was carried out using self-contained chemical pouches such as those described in U.S. Pat. No. 5,229,297 (Schnipelsky et al). Those pouches contained the capture probe SEQ ID NO:5 attached to particles which were immobilized in a detection channel where reactions can take place.
The pouches were loaded with reagents, as follows:
(§2) The PCR reaction mixture of Example 1 (except the DNA polymerase) was made to a volume of 5472 μl. The resulting mixture was aliquoted into tubes A, B and C (1824 μl each) representing Samples A, B and C, respectively.
(§3) The sample in Tube A was diluted with buffer (220 μl) and subjected to amplification without any fluorescence dye present. The dye was added at the end of amplification for quantitative detection of the resulting products.
(§4) In addition to the PCR reagents, the sample in Tube B contained YOYO-1 fluorescent dye (0.1 μmolar) which had been added prior to amplification (220 μl of a 10 μmolar solution).
(§5) The sample in Tube C also contained YO-PRO-1 fluorescent dye (0.1 μmolar) which had been added prior to amplification (220 μl of a 10 μmolar solution).
(§6) The DNA polymerase (88 μl) and target HIV-I DNA target nucleic acid (220 μl) were then added to each tube, and the contents of the each of the three tubes were used to fill the PCR reagent compartment of eight pouches.
Amplification was carried out using the same procedures as in Example 1. The PCR protocol was similarly carried out for 40 cycles using a thermal cycler as follows:
1) Preheat to denature at 95° C. for 60 seconds,
priming and extension for 40 seconds at 63.5° C., and denaturation for 10 seconds at 95° C., and
3) final denaturation for 60 seconds at 95° C.
(§7) The results of amplification were detected in three ways: (1) color dye scores visually evaluated as 0 (no signal) to 10 (highest signal density), (2) ethidium bromide stained electrophoretic gels, and (3) fluorescence measured on a commercially available Perkin Elmer fluorimeter.
The noted color scores were obtained by using immobilized capture probes in the pouches with which the amplified target hybridized during incubation for 5 minutes at 42° C. The immobilized target was contacted with the conjugate solution (identified above) for 1 minute at 30° C., followed by the wash solution for 1 minute at 55° C. The leuco dye solution was then added at 30° C. and the resulting color signal was observed after two minutes incubation at 30° C. […]

Assay [4] concerns HIV-I DNA. As to the kind of experiment: Example 2: ethidium bromide stained electrophoretic gels of amplification products. It is filed as biochemical. The procedure: The method of this invention was compared to an amplification and detection method outside the scope of this invention, which was carried out using YOYO-1 (1 μmolar final concentration), a tetravalent fluorescent dye, in the buffered solution described above. This dye has the following structure: [drawing 4] The PCR reaction mixture of Example 1 (except the DNA polymerase) was made to a volume of 5472 μl. The resulting mixture was aliquoted into tubes A, B and C (1824 μl each) representing Samples A, B and C, respectively. The sample in Tube A was diluted with buffer (220 μl) and subjected to amplification without any fluorescence dye present. The dye was added at the end of amplification for quantitative detection of the resulting products. In addition to the PCR reagents, the sample in Tube B contained YOYO-1 fluorescent dye (0.1 μmolar) which had been added prior to amplification (220 μl of a 10 μmolar solution). The sample in Tube C also contained YO-[…] fluorescent dye (0.1 μmolar) which had been added prior to amplification (220 μl of a 10 μmolar solution). The DNA polymerase (88 μl) and target HIV-I DNA target nucleic acid (220 μl) were then added to each tube, and the contents of the each of the three tubes were used to fill the PCR reagent compartment of eight pouches. Amplification was carried out using the same procedures as in Example 1. […] follows: The results of amplification were detected in three ways: (1) color dye scores visually evaluated as 0 (no signal) to 10 (highest signal density), (2) ethidium bromide stained electrophoretic gels, and (3) fluorescence measured on a commercially available Perkin Elmer fluorimeter. Electrophoresis was carried out using commercially available NuSieve 1.5%/Seakem Agarose 1% gels (modified to 2.5% agarose) and ethidium bromide stain. The samples were applied to the gels in conventional TBE buffer (4 μl/100 μl). Three replicate assays of each sample (A, B and C) were carried out using each detection means. The average result for each detection means was as follows: […]

Assay [5] relates to HIV-I DNA. As to the kind of experiment: Example 2: fluorescence of amplification products. It is filed as biochemical. On the procedure:
as §1, §2, §3, §4, §5, §6
Amplification was carried out using the same procedures as in Example 1. […]
as §7
Three replicate assays of each sample (A, B and C) were carried out using each detection means. The average result for each detection means was as follows:
Fluorescent signal was generated using a Perkin-Elmer LS-5B fluorimeter, at the following wavelengths for both dyes:
Each amplification product mixture was diluted 100× into a solution of each dye (1 μmolar final concentration). Background signals were obtained from a mixture of amplification reagent mixture and each dye.

[6] abbreviates: 60 cycles, in the presence of YOYO-1.

“And” between values parts separate entries of the source, which are not always exact repeats. Identical values can stand only once.

On to `C[n+]1c(C=C2C=CN(CCC[N+](C)(C)C)C=C2)oc2ccccc21` [A], for which, in assay [1], the affinity, expressed as Kd, was 27.8 µM.
Regarding `C[n+]1c(C=C2C=CN(CCC[N+](C)(C)C)C=C2)sc2ccccc21` [Compound C], in assay [2], the “Fluorescent Signal” value is recorded as 19.6 and the “usefulness of dye / inhibition of PCR” value was “useful”. In assay [1], this compound gave a Kd of 17.2 µM.
`C[n+]1c(C=C2C=CN(CCC[N+](C)(C)C)c3ccccc32)sc2ccccc21` [Compound G]: in assay [2], the “Fluorescent Signal” value worked out at 8.32 and the “usefulness of dye / inhibition of PCR” value is “useful”. Moreover, the Kd in assay [1] was 2.78 µM.
`C[n+]1c(C=CC=C2C=CN(CCC[N+](C)(C)C)c3ccccc32)sc2ccccc21` [Compound H]: in assay [2], the “Fluorescent Signal” value turned out to be 15.5 and the “usefulness of dye / inhibition of PCR” value is given as “useful”. Moreover, the Kd in assay [1] is 9.09 µM.
For `C[n+]1c(C=CC=C2C=CN(CCC[N+](C)(C)C)C=C2)sc2ccccc21` [D], in assay [1], the Kd is 11.5 µM.
As for `C[n+]1c(C=CC=C2C=CN(CCC[N+](C)(C)C)c3ccccc32)oc2ccccc21` [F], the Kd in assay [1] is 16.7 µM.
Regarding `CN1/C(=C/c2cc[n+](CCC[N+](C)(C)CCC[N+](C)(C)CCC[n+]3ccc(/C=C4\Sc5ccccc5N4C)c4ccccc43)c3ccccc23)Sc2ccccc21.[I-].[I-].[I-].[I-]` [TOTO-1, reference compound], the “Fluorescent Signal” value in assay [2] turned out to be 2.70.
Consider `C[n+]1c(C=C2C=CN(CCC[N+](C)(C)CCC[N+](C)(C)CCCN3C=CC(=Cc4oc5ccccc5[n+]4C)c4ccccc43)c3ccccc32)oc2ccccc21` [YOYO-1], for which the “effect of dye on amplification (color scores)” value in assay [3] is reported as “inhibited amplification”. Moreover, the “Average Color Score” value in assay [3] (leuco dye, 0 (no signal) to 10 (highest signal density), 40 cycles) worked out at 0. Moreover, the “difference with modified protocol, by gel electrophoresis” value in assay [4] (setting [6]) is recorded as “not by gel electrophoresis”. For the same compound, the “effect of dye on amplification (gel)” value in assay [4] (dye added prior to amplification) is “stopped amplification”. Moreover, in assay [4] (dye added prior to amplification, 40 cycles), the “Positive/negative Gel Bands” value is 5 Negatives out of 5 bands. Moreover, in assay [5] (setting [6]), the “difference with modified protocol, by fluorescence” value was “small and was detectable by fluorescence”. The “Fluorescence, dye added after amplification (Sample A)” value in assay [5] (Sample A, dye added after amplification, replicates, 491/509 nm) is 7.1 Fluorescent Units and 6.6 Fluorescent Units and 6.0 Fluorescent Units (2×). Further, in assay [5] (amplification reagent mixture and dye, excitation 491 nm, emission 509 nm), the Background fluorescence was determined as 0.09 Fluorescent Units. Moreover, the “effect of dye on amplification / overall signal” value in assay [5] (comparison of the two dyes (fluorescence)) is “considerably inhibits the amplification process”. Besides, the “Fluorescence, dye present during amplification (Samples B, C)” value in assay [5] (dye added prior to amplification, replicates, 491/509 nm) was 1.5 Fluorescent Units (3×) and 1.4 Fluorescent Units (2×). Moreover, in assay [5] (in words), the nucleic acid staining result is recorded as “high nucleic acid staining”. Moreover, in assay [2], the “Fluorescent Signal” value was 2.18 and the “usefulness of dye / inhibition of PCR” value is “not useful because they generally inhibited PCR”.
On to TOTO-3 [reference compound], for which, in assay [2] (Table II footnote), the “Fluorescent signal and its repeatability (in words)” value was “high fluorescent signal in one experiment”. Moreover, the “Fluorescent Signal” value in assay [2] worked out at 8.45.

(Values after patent US5563037A, “Homogeneous method for assay of double-stranded nucleic acids using fluorescent dyes and kit useful therein” (Johnson & Johnson Clinical Diagnostics, Inc., priority 1995, dated 1996).)
